Patent US6746663B2, “Porphyrin compounds” (Photochemical Co., Ltd., priority 1999, dated 2004)
Where a name gives a salt, the structure may show the parent alone.

Experiments:
[1] = Photosensitizing oxidation reaction using Dansyl methionine; conditions: for Degree of Photo Reaction (reaction end time): 0.1 μM photosensitizer, 10 μM Dansyl methionine in chloroform, halogen lamp irradiation, time until Dansyl methionine disappeared on TLC, smaller = stronger
Method: (§1) Albumin test is a test method for evaluating the affinity to cancerous tissues, in which a chlorin derivative is examined on the change in ultraviolet (UV) absorption spectrum in a mixture form with albumine, and dancyl methionine test is also a convenient test method for evaluating the strength of the photoreactivity by thin layer chromatography (TLC) or high performance liquid chromatography (HPLC) (see Japanese Patent Application Laid-open No. 5-97857).
To 1 ml of chloroform, 10 μM of Dansyl methionine, a substrate, was added, and then 0.1 μM of the photosensitizer of the present invention [sodium salt of NOEt-P-Asp(I)] was further added. Laser irradiation was conducted using Cold Spot PICL-SX (Nippon P.I. Co., Ltd.) which is halogen lamp, has 150 W wave length and 80,00 Lux, under stirring. The reaction solution was spotted at every minute on TLC plate (Kieselgel 60F254), and developed with chloroform methanol (3:2), then Dansyl methionine and its oxide (Dansylmethionine sulfoxide) were confirmed using UV lamp (254 nm). The time that Dansylmethionine disappeared completely on TLC plate was stated as the end of the reaction time, and photo oxidation reaction of photosensitizer was compared.
Photofrin II (Trade Mark) was used as a control of photosensitizer of present invention.

[2] = system: tumor tissues of colon cancer Colon 26; assay: Evaluation on tissue accumulability (cancer/organ concentration by surface fluorescence); assay type: in vivo; conditions: 10 mg/kg intravenous, 3H/He mice bearing Colon 26, 1 to 24 hours after administration, FIG. 2
Method: In the graph, the curve No.1 represents the result of cancer/brain, the curve No.2 represents the result of cancer/liver, the curve No.3 represents the result of cancer/lung, the curve No.4 represents cancer/muscle, the curve No.5 represents cancer/kidney, and the curve No.6 represents cancer/plasma.
3H/He mice (5 per group) implanted with tumor tissues of colon cancer Colon 26 for 14 to 21 days, were given an intravenous injection of sodium salt of each of NOEt-P-Asp(I) (10 mg/kg for each mouse) which had been diluted with a distilled water for injection. The blood samples were collected and the organs bearing the tumor tissue were extirpated after the injection, irradiated with N2-pulsed laser (N2, wavelength: 337 nm, 2 ns, 400-1,000 nm), and the excited fluorescent spectrum was measured. The wavelength in the range of 600 to 900 nm was examined based on the peak wavelength of NADH at 470 nm (determination of the distribution of the test compound in the organ by the surface fluorescence method using N2-pulsed laser spectrophotometry). That is, the distributed concentration of sodium salt of NOEt-P-Asp(I) in cancer/organ (or plasma) ratio was determined by calculating the peak wavelength at 670 nm when the peak wavelength at 470 nm was considered as the basic value, 1.

albumin = albumin (Homo sapiens, UniProt P02768); assay: Albumin test (change in UV absorption spectrum in mixture with albumin); assay type: binding
From the text: as §1

Chain of albumin (P02768 25-609, species assumed): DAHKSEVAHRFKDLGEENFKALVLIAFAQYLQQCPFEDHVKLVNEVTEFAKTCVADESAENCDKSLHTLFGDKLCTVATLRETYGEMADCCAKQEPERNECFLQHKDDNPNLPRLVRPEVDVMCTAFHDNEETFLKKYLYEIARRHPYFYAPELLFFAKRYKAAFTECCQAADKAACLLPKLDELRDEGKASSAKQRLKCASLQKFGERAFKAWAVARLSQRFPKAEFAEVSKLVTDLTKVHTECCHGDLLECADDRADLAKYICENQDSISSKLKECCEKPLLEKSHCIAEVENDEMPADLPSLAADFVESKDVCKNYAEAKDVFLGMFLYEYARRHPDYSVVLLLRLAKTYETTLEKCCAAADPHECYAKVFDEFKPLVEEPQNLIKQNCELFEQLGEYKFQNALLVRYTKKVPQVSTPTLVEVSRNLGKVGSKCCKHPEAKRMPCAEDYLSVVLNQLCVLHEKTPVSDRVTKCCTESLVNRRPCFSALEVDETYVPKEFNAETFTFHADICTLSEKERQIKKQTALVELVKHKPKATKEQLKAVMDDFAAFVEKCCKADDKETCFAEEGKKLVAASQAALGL

Compound	Degree of Photo Reaction (reaction end time) [1]	accumulability to cancerous tissues (cancer/organ or plasma concentration ratio) [2]	transferability to cancerous tissues (affinity to cancerous tissues) (albumin)	photosensitivity (strength of photoreactivity) ([1]; dancyl methionine test, result in words)
13,17-bis[(1,2-dicarboxyethyl)carbamoylethyl]-8-ethenyl-2-hydroxy-3-etoxyiminoethylidene-2,17,12,18-tetramethyl-porphyrin [NOEt-P-Asp(II) Na salt]	4 min	–	–	–
C=Cc1c(C)c2cc3nc(cc4[nH]c(cc5nc(cc1[nH]2)C(C)(O)C5=CC=NOCC)c(C)c4CCC(=O)NC(CC(=O)O)C(=O)O)C(CCC(=O)NC(CC(=O)O)C(=O)O)=C3C (centres unmarked) [NOEt-P-Asp(I) Na salt, 13,17-bis[(1,2-dicarboxylethyl)carbamoylethyl]-3-ethenyl-7-hydroxy-8-ethoxyiminoethylidene-2,7,12,18-tetramethyl-porphyrin]	4 min	much higher accumulability to cancerous tissues	–	–
C=Cc1c(C)c2cc3nc(cc4[nH]c(cc5nc(cc1[nH]2)C(C)(O)C5=CC=NOCC)c(C)c4CCC(=O)NC(CC(=O)O)C(=O)O)C(CCC(=O)NC(CC(=O)O)C(=O)O)=C3C (centres unmarked) [NOEt-P-Asp(I), 13,17-bis[(1,2-dicarboxylethyl)carbamoylethyl]-3-ethenyl-7-hydroxy-8-ethoxyiminoethylidene-2,7,12,18-tetramethyl-porphyrin]	–	–	excellent transferability to cancerous tissues	strong photosensitivity
